Experimental data: patent US6849663B2, “2-Aminotetralines, a process for their preparation, and pharmaceutical compositions, for the prevention and therapeutic treatment of inflammatory and/or autoimmune pathologies” (Sigma-Tau Industrie Farmaceutiche Riunite S.p.A., priority 1997, dated 2005)
Where “and” joins values, the source holds several entries; their conditions need not be identical. Equal values may be shown once. Where a name gives a salt, the structure may show the parent alone. Read-outs that look alike come from different tables or passages of the source.

Columns and labels:
[1] = system: S. typhosa LPS; parameters: species or system mice; conditions: mouse, in vivo; for Survival increase (%): iv
[2] = system: E. coli LPS; parameters: species or system mice; conditions: mouse, in vivo
[3] = system: TNF; test: Serum TNF after Salmonella typhosa LPS in mice; type: in vivo; conditions: 6 mg/kg i.v., −30/+5 min schedule, LPS control 154.2
Description: Animals were treated intraperitoneally (i.p.) with S. typhosa LPS. Prior to use, the endotoxin was first dissolved in sterile saline and then injected in a volume of 200 μL, at the dose of 27.0 mg/kg, corresponding to about the LD80.
The compounds tested were administered intravenously (i.v.) in a volume of 200 μL of sterile saline at the dose approximately corresponding to 1/10 LD50, 30 min before and again 5 min after the endotoxic challenge (LPS).
In both experimental models, blood samples were taken 90 min after the challenge (peak serum TNF level).
Ether-anaesthetised mice were bled by retro-orbital sinus puncture.
Blood samples were incubated at room temperature for 2 h and the serum thus obtained was centrifuged for 20 min at 3000 rpm and stored at −80° C. pending TNF assay.
TNF biological activity was determined in RPMI medium containing 1% FCS.
50 μL/well of serial dilutions of samples containing TNF were added directly to the Primaria microtiter plates.
The experimental conditions utilised were the same as those previously described.
Data were analysed statistically using the one-tailed Student's t test.

[4] = system: SEB (Staphylococcus aureus) enterotoxin; parameters: species or system mice; conditions: mouse, in vivo
[5] = system: TNF; test: TNF production induced by LPS in rat blood culture; type: cell-based
[6] = system: TNF; parameters: species or system mice; conditions: mouse, in vivo
[7] = system: TNF; parameters: species or system mice; conditions: mouse, in vivo; remark: listed apart in the source
[8] = system: IL-1β; parameters: species or system mice; conditions: mouse, in vivo
[9] = system: IL-6; parameters: species or system mice; conditions: mouse, in vivo
[10] = system: IFN-γ; parameters: species or system mice; conditions: mouse, in vivo

Compound | Dead/Total [1] | Survival increase (%) [1] | Dead/Total [2] | Survival increase (%) ([2]; iv) | effect on lethality (in words) [1] | Dead/Total [4] | Survival increase (%) ([4]; iv) | further results
COc1cc2c(cc1F)CC[C@@H](N)C2 (racemic) [ST 626, (R,S)-2-amino-6-fluoro-7-methoxytetraline hydrochloride, reference compound] | 6/20 | +40% | 21/28 | +11% |  |  |  | TNF (U/mL) Mean [3]: 35.0 U/mL
CC(=O)c1cc2c(cc1C)CC[C@@H](N)C2.Cl (racemic) [ST 1274, (R,S)-7-acetyl-2-amino-6-methyltetraline hydrochloride] | 10/20 | +40% | 5/10 |  | significantly reduce the lethality | 0/10 | +90% | 
Cc1cc2c(cc1F)CC[C@@H](N)C2.Cl (racemic) [ST 1275, (R,S)-2-amino-6-fluoro-7-methyltetraline hydrochloride] | 6/10 | +40% | 5/10 |  | significantly reduce the lethality | 1/10 | +80% | 
Cl.N[C@@H]1CCc2cc(F)c(O)cc2C1 [ST 1238, R(+)-2-amino-6-fluoro-7-hydroxytetraline hydrochloride] |  |  |  | +60% |  |  | +70% | Survival increase (%) [2]: +44%; effect on lethality (in words) [2]: significantly reduces the lethality; Dead/Total ([2]; hydrochloride): 5/20 and 7/19; Survival increase (%) [4]: +70%; protective effect (in words) [4]: extremely significant protective effect; Dead/Total ([4]; hydrochloride): 1/20 and 4/20; TNF (mean % values) [5]: 61%; reduction of TNF production ([5]; rat blood cultures stimulated with LPS, compound 50 μM): 39%; effect on TNF levels (in words) [6]: significantly reduces TNF levels; TNF (U/mL) Mean [7]: 6.2 U/mL; TNF (U/mL) mean [7]: 27.0 U/mL; effect on TNF production (in words) [7]: significantly reduces TNF production; IL-1β (pg/mL) Mean [8]: 0.9 pg/mL; IL-6 (pg/mL) Mean [9]: 599 pg/mL; effect on IL-6 production (in words) [9]: significantly reduces the production; IFN-γ (pg/mL) Mean [10]: 25 pg/mL; effect on IFN-γ production (in words) [10]: significantly reduces the production
